Data from the supplement of paper PMC10307832.

Legend:
XMD8-85 + AZD7762 = compound: CN1CCN(CC1)C2=CC(=C(C=C2)NC3=NC=C4C(=N3)N(C5=CC=CC=C5C(=O)N4C)C)OC [XMD8-85] + NC(=O)Nc1cc(-c2cccc(F)c2)sc1C(=O)N[C@H]1CCCNC1 [AZD7762] (partner 0.2 µM); experiment: relative viability (nuclei count vs DMSO), 5 days (fraction); higher = more cells survive
In short: (§1)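 Relative viability equals treated-well nuclei counts divided by vehicle-well nuclei counts. Counts came from 4× images of lung cancer cell lines grown in 1536-well plates for 5 days after pin-tool dosing on the day after seeding. Dosing used one drug alone or a fixed anchor-drug dose plus five library-drug doses (not always all listed) in √10 steps, and values are medians of duplicate plates.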

XMD8-85 + Vorinostat = compound: CN1CCN(CC1)C2=CC(=C(C=C2)NC3=NC=C4C(=N3)N(C5=CC=CC=C5C(=O)N4C)C)OC [XMD8-85] + O=C(CCCCCCC(=O)Nc1ccccc1)NO [Vorinostat] (partner 1 µM); experiment: as above
In short: as §1

Cell Line | relative viability (XMD8-85 + AZD7762; first compound 0.08 µM) | relative viability (XMD8-85 + AZD7762; first compound 0.253 µM) | relative viability (XMD8-85 + AZD7762; first compound 0.8 µM) | relative viability (XMD8-85 + AZD7762; first compound 2.53 µM) | relative viability (XMD8-85 + AZD7762; first compound 8 µM) | relative viability (XMD8-85 + Vorinostat; first compound 0.08 µM) | relative viability (XMD8-85 + Vorinostat; first compound 0.253 µM) | relative viability (XMD8-85 + Vorinostat; first compound 0.8 µM) | relative viability (XMD8-85 + Vorinostat; first compound 2.53 µM) | relative viability (XMD8-85 + Vorinostat; first compound 8 µM)
201T | 0.566 | 0.651 | 0.669 | 0.698 | 0.575 | 1.01 | 1.03 | 0.961 | 0.978 | 0.741
LK-2 | 0.288 | 0.334 | 0.322 | 0.254 | 0.284 | 0.25 | 0.421 | 0.271 | 0.264 | 0.206
HCC-78 | 0.556 | 0.582 | 0.728 | 1.13 | 0.499 | 0.395 | 0.43 | 0.391 | 0.427 | 0.434
EMC-BAC-2 | 1.16 | 1.03 | 1.04 | 1.1 | 0.789 | 0.424 | 0.468 | 0.413 | 0.385 | 0.185
NCI-H2023 |  |  |  |  |  | 0.405 | 0.835 |  | 0.665 | 0.475
SK-MES-1 |  |  |  |  |  | 0.761 | 1.27 | 1.05 | 1.03 | 0.474
NCI-H1755 | 0.542 | 0.663 | 0.382 | 0.519 | 0.512 | 0.8 | 0.799 | 0.695 | 0.761 | 0.692
NCI-H2405 | 0.636 | 0.741 | 0.73 | 0.708 | 0.467 | 0.993 | 0.992 | 1.08 | 1.06 | 0.549
IA-LM |  |  |  |  |  | 0.824 | 0.731 | 0.812 | 0.662 | 0.588
SK-LU-1 |  |  |  |  |  |  |  | 0.92 | 0.9 | 0.694
PC-14 | 0.352 | 0.364 | 0.34 | 0.394 | 0.18 | 0.463 | 0.566 | 0.667 |  | 0.327
LCLC-103H | 0.769 | 0.825 | 0.811 | 0.851 | 0.781 | 0.799 | 0.77 | 0.784 | 0.801 | 0.585
NCI-H2009 |  |  |  |  |  | 0.716 | 0.774 |  | 0.621 | 
NCI-H596 | 1.18 | 0.944 | 1.06 | 1.1 | 0.966 | 0.517 | 0.559 | 0.495 | 0.53 | 0.361
HARA | 0.314 | 0.269 | 0.303 | 0.283 | 0.273 | 0.549 | 0.592 | 0.565 | 0.427 | 0.47
SW 900 | 0.555 | 0.669 | 0.589 | 0.626 | 0.304 | 0.372 | 0.584 | 0.434 | 0.671 | 0.188
UMC-11 |  |  |  |  |  | 0.45 | 0.367 | 0.441 | 0.296 | 0.22
NCI-H460 | 0.624 | 0.643 | 0.69 | 0.659 | 0.432 | 0.53 | 0.786 | 0.672 | 0.766 | 0.146
NCI-H322M | 0.566 | 0.606 | 0.568 | 0.451 | 0.38 | 0.832 | 0.815 | 0.885 | 0.779 | 0.606
NCI-H1734 | 0.562 | 0.534 | 0.529 | 0.626 |  | 0.788 | 0.84 | 0.826 | 0.768 | 0.56
